Read-outs that look alike come from different tables or passages of the source.
Key:
[1] = molecular target: CYP3A4 (Homo sapiens, UniProt P08684); experiment: in vitro; details: pH 7.4
Method: (§1) Metabolism of the selected compounds was evaluated upon incubation with human liver cytosol (Gibco) and supersome recombinant CYP isoforms 3A4 expressed in baculovirus-infected insect cells (Gibco). For metabolism in CYP3A4, test compounds (1 μM) were incubated in 0.1 M potassium phosphate buffer (pH 7.4) and allowed to equilibrate at 37 °C. Freshly prepared 25 mM nicotinamide adenine dinucleotide phosphate (NADPH, 1 mM final concentration) was added to the incubation mixture to start the reaction. For metabolism in human liver cytosol, reactions were initiated by adding test compounds (1 μM) to the mix reaction constituted by the human liver cytosol (1 mg/mL) prewarmed in potassium phosphate buffer (pH 7.4). […] In both procedures, aliquots (50 μL) of the incubation mix were removed at 0, 10, 20, 30, and 60 min (CYP3A4) or 0, 30, 60, and 90 min (human liver cytosol) and added to 50 μL of ice-cold acetonitrile quench solution (internal standard, 1 μM labetalol) to stop the reaction. Samples were then centrifuged at 12 000 rpm for 5 min at 4 °C. The supernatant was concentrated by evaporation under a nitrogen stream and reconstituted in DMSO. The blank was prepared similarly but in the absence of the investigated compounds. Samples were then analyzed by LC–MS/MS (see the Analytical procedure).
(§2) A Thermo Q-exactive mass spectrometer (Thermo Fisher Scientific, Waltham, MA) was used. The LC system, governed by Chromeleon X-press software, consists of a Binary pump, a thermostated autosampler, and a column compartment, all Dionex Ultimate 3000 series modules (Thermo Fisher Scientific, Waltham, MA). A volume of 2 μL was injected for each sample. Chromatographic separation of analytes was conducted in reverse-phase chromatography. In brief, a Luna Omega 1.6 μm Polar (C18, 2.1 mm × 150 mm) was used, and the mobile phases consisted of water (A) and acetonitrile (B), both containing formic acid at 0.1%. The LC flow was set at 0.400 mL/min in a 12 min gradient elution as follows: 99.5:0.5 (A/B) to 5:95 (A/B) over 10 min, 5:95 (A/B) for 2 min, and then reversion back to 99.5:0.5 (A/B) over 2.5 min. The column was operating at a constant temperature of 40 °C.

[2] = Metabolic stability in cryopreserved human hepatocytes; assay type: in vitro ADME; details: human, cryopreserved human hepatocytes (pooled, suspension)
Method: (§3) Cryopreserved human hepatocytes (pooled suspension hepatocytes, Gibco) were thawed placing in a 37 °C shaking water bath according to the manufacturer’s specifications and resuspended in Williams E medium (WEM) to have 1 × 10^6 cells/mL. Samples with the test compound at 1 μM were incubated at 37 °C, and aliquots of 50 μL were collected at 0, 10, 30, 60, 120, and 240 min. The incubations were quenched 1:3 with ice-cold acetonitrile (containing 1 μM labetalol as the internal standard). Samples were then centrifuged at 12000 rpm for 5 min at 4 °C. The supernatant was concentrated by evaporation under a nitrogen stream and reconstituted with DMSO. Blank was prepared similarly but in the absence of the investigated compounds.
as §2

[3] = Nonenzymatic stability of 1 (dBet1) in the autosampler in four solutions during LC-MS; assay type: physicochemical; details: for nonenzymatic stability in autosampler: 12 h
Method: dBet1 (1) (10 mM in DMSO) was diluted 1:1000 in PBS/ACN (50:50, vol/vol) to afford a final concentration of 10 μM; 100 μL was drawn and dried under a gentle nitrogen stream at 40 °C for 30 min. After that evaporation was completed, the dry residue was reconstituted with 100 μL of DMSO. Additional three solutions of dBet1 (1) (10 μM) were prepared in PBS, PBS/ACN (50:50, vol/vol), and DMSO. The four solutions were stored into the autosampler of the LC apparatus at 37 °C for 12 h. Injections (2 μL) were programmed every 3 h.

[4] = molecular target: T1, human aldehyde oxidase (hAOX) in human liver cytosol (Homo sapiens, UniProt Q06278); experiment: Metabolism in human liver cytosol with/without hydralazine (hAOX); assay type: in vitro ADME; details: for reactions observed in human liver cytosol: 30, 60, 90 min, absence and presence of hydralazine, both in the VHL ligand moiety; for hAOX percentage of substrate left at the final time point of analysis / hAOX t1/2: supplement CSV; for hAOX percentage of substrate left at the final time point of analysis: in brackets, final time point 90 min; for hAOX t1/2: human liver cytosol 1 mg/mL, up to 90 min
T1 construct: human aldehyde oxidase (hAOX), a cytosolic drug-metabolizing enzyme expressed in the human liver; tissue Gibco; host or cells: human liver cytosol
T1 sequence (Q06278 1-1338): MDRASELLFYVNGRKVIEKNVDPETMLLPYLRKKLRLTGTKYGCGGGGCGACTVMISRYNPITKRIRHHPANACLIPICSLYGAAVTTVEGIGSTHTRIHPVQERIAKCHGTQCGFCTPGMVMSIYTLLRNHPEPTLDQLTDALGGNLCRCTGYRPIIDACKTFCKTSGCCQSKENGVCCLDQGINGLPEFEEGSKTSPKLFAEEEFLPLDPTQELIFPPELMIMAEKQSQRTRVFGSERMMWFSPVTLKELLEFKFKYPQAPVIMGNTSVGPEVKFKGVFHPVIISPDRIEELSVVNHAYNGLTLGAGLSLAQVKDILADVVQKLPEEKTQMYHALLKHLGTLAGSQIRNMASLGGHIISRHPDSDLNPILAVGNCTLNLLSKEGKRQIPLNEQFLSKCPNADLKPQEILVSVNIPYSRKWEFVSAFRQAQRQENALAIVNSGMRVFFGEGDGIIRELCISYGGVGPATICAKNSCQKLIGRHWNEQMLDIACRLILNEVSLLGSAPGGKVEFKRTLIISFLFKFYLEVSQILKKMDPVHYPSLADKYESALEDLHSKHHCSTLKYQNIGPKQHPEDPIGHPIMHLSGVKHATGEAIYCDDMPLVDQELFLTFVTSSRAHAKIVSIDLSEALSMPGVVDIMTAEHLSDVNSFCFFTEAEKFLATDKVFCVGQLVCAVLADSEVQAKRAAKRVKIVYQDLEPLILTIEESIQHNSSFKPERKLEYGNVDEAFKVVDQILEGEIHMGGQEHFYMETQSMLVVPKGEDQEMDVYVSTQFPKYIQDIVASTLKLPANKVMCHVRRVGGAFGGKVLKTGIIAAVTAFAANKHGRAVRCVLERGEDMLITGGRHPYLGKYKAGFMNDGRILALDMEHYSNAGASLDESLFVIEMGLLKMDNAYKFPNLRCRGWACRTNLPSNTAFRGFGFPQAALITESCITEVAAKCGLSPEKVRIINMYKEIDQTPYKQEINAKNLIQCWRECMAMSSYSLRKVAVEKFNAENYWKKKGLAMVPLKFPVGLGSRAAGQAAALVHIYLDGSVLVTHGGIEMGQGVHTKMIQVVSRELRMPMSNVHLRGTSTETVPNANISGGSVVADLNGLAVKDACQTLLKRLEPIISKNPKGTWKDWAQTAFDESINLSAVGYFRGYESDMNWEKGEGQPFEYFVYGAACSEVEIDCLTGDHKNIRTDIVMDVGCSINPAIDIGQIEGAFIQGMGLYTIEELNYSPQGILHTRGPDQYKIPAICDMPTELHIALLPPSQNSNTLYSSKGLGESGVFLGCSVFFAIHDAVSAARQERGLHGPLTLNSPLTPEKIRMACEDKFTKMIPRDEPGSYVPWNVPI
Method: as §1, §2

[5] = molecular target: T2, aldehyde oxidase (hAOX, AOX1) (Homo sapiens, UniProt Q06278); experiment: as above; assay type: in vitro ADME; details: human, human liver cytosol, pH 7.4; Figure 7A
T2 construct: human aldehyde oxidase (hAOX), a cytosolic drug-metabolizing enzyme expressed in the human liver; tissue Gibco; host or cells: human liver cytosol
T2 sequence (Q06278 1-1338): T1 sequence (Q06278 1-1338)
Method: as §1, §2

[6] = test system: cryopreserved human hepatocytes; experiment: Metabolic stability in cryopreserved human hepatocytes; assay type: in vitro ADME; details: biotransformations observed in cryopreserved human hepatocytes
Method: as §3, §2

[7] = Table S1, PROTACs, cryopreserved human hepatocytes, read-out: t1/2
[8] = supplement CSV, human hepatocytes, read-out: HLH t1/2
[9] = Figures 3-5, cryopreserved human hepatocytes, read-out: half-life (t1/2)

CYP3A4, sequence (P08684 whole entry): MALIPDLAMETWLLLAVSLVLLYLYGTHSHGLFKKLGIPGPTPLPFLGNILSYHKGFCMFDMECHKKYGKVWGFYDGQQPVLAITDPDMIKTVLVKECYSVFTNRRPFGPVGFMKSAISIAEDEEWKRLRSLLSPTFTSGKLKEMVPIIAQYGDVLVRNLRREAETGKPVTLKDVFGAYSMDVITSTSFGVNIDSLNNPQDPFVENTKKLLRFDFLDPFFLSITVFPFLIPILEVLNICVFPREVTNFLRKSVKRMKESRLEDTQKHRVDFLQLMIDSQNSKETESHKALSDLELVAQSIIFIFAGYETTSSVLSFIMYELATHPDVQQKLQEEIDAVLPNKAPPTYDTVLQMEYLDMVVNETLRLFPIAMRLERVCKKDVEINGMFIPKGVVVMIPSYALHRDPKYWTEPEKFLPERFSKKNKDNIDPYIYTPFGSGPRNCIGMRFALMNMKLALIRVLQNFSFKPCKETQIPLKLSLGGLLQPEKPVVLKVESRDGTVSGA

Row | Structure (SMILES) | half-life at 1 µM [1] [h] | half-life at 1 µM [2, 7] [h] | half-life at 1 µM [2, 8] [h] | half-life at 1 µM [2, 9] [h] | also measured
1 | O=C(COc1c(-c2csc(N3CCOCC3)n2)ccc(F)c1F)NCCCCCCNc1cccc2c1C(=O)N(C1CCC(=O)NC1=O)C2=O (stereo not shown) [Compound 29, 2-(2,3-Difluoro-6-(2-morpholinothiazol-4-yl)phenoxy)-N-(6-((2-(2,6-dioxopiperidin-3-yl)-1,3-dioxoisoindolin-4-yl)amino)hexyl)acetamide] | 0.123 | 0.892 | 0.892 | – | –
2 | Cc1sc2c(c1C)C(c1ccc(Cl)cc1)=N[C@@H](CC(=O)NCCOCCOCCNc1cccc3c1C(=O)N(C1CCC(=O)NC1=O)C3=O)c1nnc(C)n1-2 (stereo partly drawn) [Compound 5, 2-((S)-4-(4-Chlorophenyl)-2,3,9-trimethyl-6H-thieno[3,2-f][1,2,4]triazolo[4,3-a][1,4]diazepin-6-yl)-N-(2-(2-(2-((2-(2,6-dioxopiperidin-3-yl)-1,3-dioxoisoindolin-4-yl)amino)ethoxy)ethoxy)ethyl)acetamide] | 0.0183 | 0.823 | 0.823 | – | –
3 | Cc1ncsc1-c1ccc([C@H](C)NC(=O)[C@@H]2C[C@@H](O)CN2C(=O)[C@@H](NC(=O)CCCCCCNC(=O)COc2c(-c3csc(N4CCOCC4)n3)ccc(F)c2F)C(C)(C)C)cc1 [Compound 35] | 0.0283 | 0.417 | 0.417 | 0.417 | –
4 | Cc1sc2c(c1C)C(c1ccc(Cl)cc1)=N[C@@H](CC(=O)NCCCCNC(=O)COc1cccc3c1C(=O)N(C1CCC(=O)NC1=O)C3=O)c1nnc(C)n1-2 (stereo partly shown) [Compound 1, dBet1] | – | 2.25 | 2.25 | 2.25 | nonenzymatic stability in autosampler ([3]; PBS/ACN (1:1 v/v), 37 °C): Degradation was also observed; substrate degradation within the first three hours ([3]; PBS/ACN-DMSO protocol, autosampler 37 °C): about 10%; nonenzymatic stability in autosampler ([3]; pure DMSO, 37 °C): very stable over time; nonenzymatic stability in autosampler ([3]; pure PBS pH 7.4, 37 °C): rapidly degrades
5 | Cc1ncsc1-c1ccc([C@H](C)NC(=O)[C@@H]2C[C@@H](O)CN2C(=O)[C@@H](NC(=O)CCCCN(C)C(=O)COc2c(-c3csc(N4CCOCC4)n3)ccc(F)c2F)C(C)(C)C)cc1 [Compound 34] | – | 1.43 | 1.43 | – | reactions observed in human liver cytosol [4]: the hydrolysis of an amide and an oxidation; hAOX percentage of substrate left at the final time point of analysis [4]: 83.4%; hAOX t1/2 [4]: > 1.5 h; half-life at 1 µM [5]: > 1.5 h
6 | Cc1ncsc1-c1ccc([C@H](CC(=O)NCCCCCCNC(=O)COc2c(-c3csc(N4CCOCC4)n3)ccc(F)c2F)NC(=O)[C@@H]2C[C@@H](O)CN2C(=O)[C@@H](NC(=O)C2(F)CC2)C(C)(C)C)cc1 [Compound 40] | 0.377 | 1.11 | 1.11 | 1.11 | –
7 | Cc1ncsc1-c1ccc([C@H](C)NC(=O)[C@@H]2C[C@@H](O)CN2C(=O)[C@@H](NC(=O)CCCCNC(=O)COc2c(-c3csc(N4CCOCC4)n3)ccc(F)c2F)C(C)(C)C)cc1 [Compound 33] | – | 1.24 | 1.24 | 1.24 | reactions observed in human liver cytosol [4]: the hydrolysis of an amide and an oxidation; hAOX percentage of substrate left at the final time point of analysis [4]: 83.5%; hAOX t1/2 [4]: > 1.5 h; half-life at 1 µM [5]: > 1.5 h
8 | O=C(COc1cccc2c1C(=O)N(C1CCC(=O)NC1=O)C2=O)NCCCCCCCCNC(=O)COc1c(-c2csc(N3CCOCC3)n2)ccc(F)c1F (stereo not shown) [Compound 26, 2-(2,3-Difluoro-6-(2-morpholinothiazol-4-yl)phenoxy)-N-(8-(2-((2-(2,6-dioxopiperidin-3-yl)-1,3-dioxoisoindolin-4-yl)oxy)acetamido)octyl)acetamide] | – | 0.14 | 0.14 | 0.14 | half-life at 1 µM ([2]; Table 2, cryopreserved human hepatocytes, read-out: t1/2): 0.14 h; Reaction (soft spots) ([6]; Table 2): a. Amide hydrolysis b. N-dealkylation c. O-dealkylation
9 | Nc1cccc2c1C(=O)N(C1CCC(=O)NC1=O)C2=O (stereo not shown) [Compound 41, pomalidomide, reference compound] | – | – | 2.33 | – | half-life at 1 µM ([2]; Table 1, incubation in cryopreserved human hepatocytes, 1 μM, up to 240 min, read-out: t1/2): 2.33 h; half-life at 1 µM ([2]; Table S2, free ligands, cryopreserved human hepatocytes, read-out: t1/2): 2.33 h; Reaction (soft spots) ([6]; Table 1): a. Amide Hydrolysis (x4)

Reference: article PMC8015227, “Understanding the Metabolism of Proteolysis Targeting Chimeras (PROTACs): The Next Step toward Pharmaceutical Applications” (Journal of Medicinal Chemistry, 2020)
